{"source": "patent US6632832B1", "about": "(Dabur Research Foundation, priority 2002, dated 2003)", "key": {"DU145 (prostate)": {"tested_on": "DU145 (prostate)", "assay": "MTT cytotoxicity assay, 72 hours", "type": "cell-based, human", "settings": "72 h MTT", "experimental": "(§1) After 72 hours, the assay was terminated and percent cyotoxicities calculated."}, "KB (oral)": {"tested_on": "KB (oral)", "assay": "MTT cytotoxicity assay, 72 hours", "type": "cell-based, human", "settings": "72 h MTT", "experimental": "as §1"}, "L132 (lung)": {"tested_on": "L132 (lung)", "assay": "MTT cytotoxicity assay, 72 hours", "type": "cell-based, human", "settings": "72 h MTT", "experimental": "as §1"}, "MiaPaCa.2 (pancreas)": {"tested_on": "MiaPaCa.2 (pancreas)", "assay": "MTT cytotoxicity assay, 72 hours", "type": "cell-based, human", "settings": "72 h MTT", "experimental": "as §1"}, "PA1 (ovary)": {"tested_on": "PA1 (ovary)", "assay": "MTT cytotoxicity assay, 72 hours", "type": "cell-based, human", "settings": "72 h MTT", "experimental": "as §1"}, "PTC (colon)": {"tested_on": "PTC (colon)", "assay": "MTT cytotoxicity assay, 72 hours", "type": "cell-based, human", "settings": "72 h MTT", "experimental": "as §1"}, "U87.MG (glioblastoma)": {"tested_on": "U87.MG (glioblastoma)", "assay": "MTT cytotoxicity assay, 72 hours", "type": "cell-based, human", "settings": "72 h MTT", "experimental": "as §1"}, "[1]": {"tested_on": "Human Colon, Ovary, melanoma, Leukemia, Glioblastoma, Prostate, oral and Lung tumor cell lines", "assay": "MTT cytotoxicity assay, summary over the tumor cell line panel", "type": "cell-based", "experimental": "as §1"}, "[2]": {"tested_on": "EGF dependent proliferation in human pancreatic cancer cells (MiaPaCa2)", "assay": "EGF dependent proliferation, percent viable cells by MTT in sera free conditions", "type": "cell-based", "design": "dose or concentration left out as unconfirmed", "settings": "Carvedilol for 16 hours, then varying EGF for 48 hours", "experimental": "Briefly, 10000 human pancreatic cancer cells (MiaPaCa2) were seeded per well in a 96-well culture plate in DMEM containing 5% FCS. All experiments were carried out in triplicates at 37° C. in a CO2 incubator. The cells were incubated for a period of 12 hours, washed once with PBS and the medium was changed to DMEM without Fetal calf serum (FCS). […] The untreated control cells were treated with 1% DMSO in DMEM. The cells were washed with PBS and incubated with varying concentrations of EGF in DMEM without FCS for a period of 48 hours. The percent viable cells in absence and presence of Carvedilol was determined in an MTT assay in vitro."}, "[3]": {"tested_on": "PDGF dependent proliferation in human pancreatic cancer cells (MiaPaCa2)", "assay": "PDGF dependent proliferation, percent viable cells by MTT in sera free conditions", "type": "cell-based", "settings": "Carvedilol 20 ug/ml for 16 hours, then varying PDGF for 48 hours", "experimental": "Briefly, 10000 human pancreatic cancer cells (MiaPaCa2) were seeded per well in a 96-well culture plate in DMEM containing 5% fetal calf serum (FCS). All experiments were carried out in triplicates at 37° C. in a CO2 incubator. The cells were incubated for a period of 12 hours, washed once with PBS and the medium was changed to DMEM without FCS. […] The untreated control cells were treated with 1% DMSO in DMEM. […] The percent viable cells in absence and presence of Carvedilol was determined in an MTT assay in vitro."}, "[4]": {"tested_on": "human pancreatic cancer cells (MiaPaCa2)", "assay": "Cytotoxicity abrogation assay with intracellular blocking of PI3 kinase by Wortmannin", "type": "cell-based", "experimental": "Briefly, 10000 human pancreatic cancer cells (MiaPaCa2) were seeded per well in a 96-well culture plate in DMEM containing 5% FCS. All experiments were carried out in triplicate at 37° C. in CO2 incubator. The plates were incubated overnight to allow complete reattachment of the cells. Subsequently, the medium was replaced with DMEM. The cells were incubated with varying concentrations of Wortmannin,the specific inhibitor of PI3 kinase for a period of three hours. Wortmannin was dissolved in 0.5% DMSO. The control cells were treated with 0.5% DMSO. The cells were washed with PBS, and the medium was changed to fresh DMEM."}, "Protein Kinase C (PKC)": {"tested_on": "Protein Kinase C (PKC)", "assay": "PKC activity ELISA on lysates of treated MiaPaCa2 cells", "type": "cell-based, human", "settings": "5-100 ug/ml for 15 minutes", "experimental": "Briefly 0.5×10^6 cells of human pancreatic cancer cells (MiaPaCa2) were plated per well in 6 well tissue culture plates in 2 ml of DMEM containing 10% Fetal calf serum. The cells were incubated overnight at 37° C. and 5% CO2. The medium was changed to DMEM without serum. […] The control cells were treated with 1% DMSO in DMEM. […] The cells were scraped with sterile cell scrapers, and spun at 1500 rpm for 5 minutes. The cell pellet was dissolved in 1 ml of ice cold sample preparation buffer (50 mM Tris-HCl, 50 mM 2-mercaptoethanol, 10 mM EGTA, 5 mM EDTA, 1 mM PMSF, 10 mM Benzamidine, pH 7.5). The cell pellets were sonicated four to five times each with time intervals of 5-10 seconds. The cells were centrifuged at 100,000×g for a period of 60 minutes at 4° C. The supernatant was aspirated from each set of experiments. The reaction mixture for quantitation of the PKC activity contained 25 mM Tris-HCl (pH7.0), 3 mM Mgc12, 0.1 mM ATP, 2 mM CaCl2, 50 ug/ml Phosphatidylserine, 0.5 mM EDTA, 1 mM EGTA, and 5 mM 2 mercaptoethanol. The lysates from the cells not treated with Carvedilol were the control experiments. The reaction mixture was preincubated for 5 minutes at 25° C. […] The optical density was read at 492 nm, and the PKC activity expressed as percent of that in control cells."}, "Cyclooxygenase 2 enzyme": {"tested_on": "Cyclooxygenase 2 enzyme", "assay": "COX2 activity by PGE2 quantitation in MiaPaCa2 cells", "type": "cell-based, human", "procedure": "1×10^6 human pancreatic cancer cells (MiaPaCa2) were plated in 6 well plates in RPMI containing 10% FCS. The cells were incubated for a period of 24 hours at 37° C. in 5% CO2. The medium was changed to DMEM without serum. […] All experiments were carried out in duplicates. […] The medium was aspirated to remove Bisindolemaleimide, and the cells were washed twice with PBS. […] The cells were incubated at 37° C. for one hour. Indomethacin at a concentration of 10 ug/ml was added to the wells to block the COX enzyme. […] The cells were lysed (2.5% dodecyltrimethylammonium) and incubated for 10 minutes at room temperature. The cell lysates were transferred to microtitre plate coated with goat anti mouse Ig coated plate. 50 microliter of PGE2 standards ranging from 2.5 to 320 pg/ml were added to the microtitre plate in duplicates. 50 microliter of mouse anti PGE2 and 50 microliter of PGE2 conjugated peroxidase was added to the wells. The plate was covered and incubated at room temperature for one hour on a microtitre plate shaker. The wells were aspirated and washed 4 times with suitable was buffer. 150 microlire of enzyme substrate was added to all the wells. […] The OD was read at 450 nm.\nThe levels of secreted and intracellular PGE2 were quantitated in cells treated with or without bisindolemaleimide."}}, "note": "Read-outs that look alike come from different tables or passages of the source.", "data": [{"smiles": "COc1ccccc1OCCNCC(O)COc1cccc2[nH]c3ccccc3c12", "note": "(racemic) [Carvedilol, (±)-1-(carbazol-4-yloxy)-3-[(2-(o-methoxyphenoxy)ethyl]amino]-2-propanol]", "values": [{"measurement": "ED50", "setting": "DU145 (prostate)", "value": "9.0 ± 0.9", "unit": "µg/mL"}, {"measurement": "ED50", "setting": "KB (oral); KB (Oral), Table 2", "value": "12.0 ± 1.8", "unit": "µg/mL"}, {"measurement": "ED50", "setting": "KB (oral); KB (oral)", "value": "12.0 ± 1.8", "unit": "µg/mL"}, {"measurement": "ED50", "setting": "L132 (lung); L132 (Lung), Table 2", "value": "16.0 ± 3.1", "unit": "µg/mL"}, {"measurement": "ED50", "setting": "L132 (lung); L132 (lung)", "value": "16.0 ± 3.1", "unit": "µg/mL"}, {"measurement": "ED50", "setting": "MiaPaCa.2 (pancreas); MiaPaCa.2 (Pancreas), Table 2", "value": "33.0 ± 4.6", "unit": "µg/mL"}, {"measurement": "ED50", "setting": "MiaPaCa.2 (pancreas); MiaPaCa.2 (pancreas)", "value": "33.0 ± 4.6", "unit": "µg/mL"}, {"measurement": "ED50", "setting": "PA1 (ovary); PA1 (ovary)", "value": "11.5 ± 2.1", "unit": "µg/mL"}, {"measurement": "ED50", "setting": "PA1 (ovary); PA-1 (Ovary), Table 2", "value": "11.5 ± 2.1", "unit": "µg/mL"}, {"measurement": "ED50", "setting": "PTC (colon); PTC (Colon), Table 2", "value": "7.0 ± 0.7", "unit": "µg/mL"}, {"measurement": "ED50", "setting": "PTC (colon); PTC (colon)", "value": "7.0 ± 0.7", "unit": "µg/mL"}, {"measurement": "ED50", "setting": "U87.MG (glioblastoma); U87.MG (glioblastoma)", "value": "14.5 ± 2.2", "unit": "µg/mL"}, {"measurement": "ED50", "setting": "U87.MG (glioblastoma); U87MG (Glioblastoma), Table 2", "value": "14.5 ± 2.2", "unit": "µg/mL"}, {"measurement": "cytotoxicity at a fixed concentration (FIG. 1)", "setting": "[1]; 20 μg/ml, all of the above-mentioned tumor cell lines, except oral", "value": "high cytotoxicity effect"}, {"measurement": "ED50 values", "setting": "[1]; Colon, Ovary, melanoma, Leukemia, Glioblastoma, Prostate, oral and Lung tumor cell lines", "value": "less than 20 μg/ml"}, {"measurement": "effect on EGF dependent proliferation (FIG. 2)", "setting": "[2]", "value": "inhibits the EGF dependent proliferation in pancreatic cancer cells in a dose dependent manner"}, {"measurement": "effect on PDGF dependent proliferation (FIG. 3)", "setting": "[3]", "value": "inhibits the PDGF dependent proliferation in human pancreatic cancer cells in a dose dependent manner"}, {"measurement": "cytotoxicity at 20 µg/mL", "setting": "[4]; MIA PaCa-2, 48 h, read-out: % Cytotoxicity of Carvedilol (20 ug/ml), MiaPaCa2, 48 hours, Wortamannin Nil", "value": 50, "unit": "%"}, {"measurement": "cytotoxicity at 20 µg/mL", "setting": "[4]; MIA PaCa-2, read-out: % Cytotoxicity of Carvedilol (20 ug/ml), MiaPaCa2, 48 hours, preincubated with Wortamannin 0.5 nM", "value": 22, "unit": "%"}, {"measurement": "cytotoxicity at 20 µg/mL", "setting": "[4]; MIA PaCa-2, read-out: % Cytotoxicity of Carvedilol (20 ug/ml), MiaPaCa2, 48 hours, preincubated with Wortamannin 1.0 nM", "value": 20, "unit": "%"}, {"measurement": "cytotoxicity at 20 µg/mL", "setting": "[4]; MIA PaCa-2, read-out: % Cytotoxicity of Carvedilol (20 ug/ml), MiaPaCa2, 48 hours, preincubated with Wortamannin 1.5 nM", "value": 19, "unit": "%"}, {"measurement": "cytotoxicity at 20 µg/mL", "setting": "[4]; MIA PaCa-2, read-out: % Cytotoxicity of Carvedilol (20 ug/ml), MiaPaCa2, 48 hours, preincubated with Wortamannin 2.0 nM", "value": 18, "unit": "%"}, {"measurement": "effect on PKC activity (FIG. 4)", "setting": "Protein Kinase C (PKC)", "value": "inhibits the PKC activity in a dose dependent manner"}, {"measurement": "effect on COX2 activity (FIG. 5)", "setting": "Cyclooxygenase 2 enzyme; MiaPaCa2, 10 ug/ml and 20 ug/ml for 4 hours, secreted and intracellular PGE2", "value": "inhibits the COX2 activity"}, {"measurement": "effect on COX 2 activity after blocking of PKC", "setting": "Cyclooxygenase 2 enzyme; MiaPaCa2 preincubated with Bisindolemaleimide (1 uM) for 4 hours", "value": "abrogates the effect of Carvedilol on COX 2 activity"}]}]}
